Data on four compounds can be found in patent US20210100868A1, “COMPOSITIONS AND METHODS FOR TREATING OR PREVENTING GASTROINTESTINAL DAMAGE ASSOCIATED WITH NSAID THERAPY” (NORTH CAROLINA STATE UNIVERSITY, priority 2018, published 2021).

The test system of test [1] is ischemic-injured porcine jejunum. Nature of the test: Recovery of barrier function (transepithelial electrical resistance) in ischemic-injured porcine jejunum in Ussing chambers, with indomethacin. It counts as cell-based, Yorkshire-cross pigs. The settings on record: FIG. 1.
Description: In order to determine whether Larazotide could function as a therapeutic agent that could stimulate intestinal tissue repair in the presence of a non-steroidal anti-inflammatory drug (NSAID), recovery of barrier function in ischemic-injured porcine jejunum was monitored in the presence of the NSAID indomethacin.
Specifically, Yorkshire-cross pigs of 6-8 weeks of age were anesthetized, followed by midline laparotomy and creation of a series of 10 cm intestinal loops commencing proximal to the ileum by ligating the intestinal lumen.
The local mesenteric vasculature was ligated to select treatment loops for a period of 45 minutes. Other loops were left as non-ischemic controls. The loops were subsequently resected, and the mucosal tissues were stripped in oxygenated (95% O2/5 % CO2) rings from the muscle layers in preparation of ex vivo incubation in Ussing chambers.
Select tissues (n=8) were pre-treated with indomethacin (5 μM) on both sides of the tissue, prior to receiving 0.1-10 μM Larazotide on the luminal surface after 30 minutes of incubation in the Ussing chambers.
Transepithelial electrical resistance (TER) was monitored in the tissues for 240 minutes.
For test [2] the following is noted: clinical trials, cited from earlier work.
The subject of the next test is tight junction. Put plainly: Tight junction regulator activity of larazotide fragments. As to conditions: for Activity of full length larazotide when mixed with the two fragments: GVLVQPG and VLVQPG mixed with full length larazotide; for Activity as tight junction regulators: fragment alone.

Where no end group is shown, it is not given here.

With `COc1ccc2c(c1)c(CC(=O)O)c(C)n2C(=O)c1ccc(Cl)cc1` [indomethacin], the “Transepithelial electrical resistance (TER)” value in test [1] (indomethacin applied without larazotide) is reported as “decline in TER”.

As for GGVLVQPG [Larazotide], the “Transepithelial electrical resistance (TER)” value in test [1] (1 μM larazotide on luminal surface, in the presence of indomethacin (5 μM), monitored for 240 minutes) was “increased TER”. For the same compound, the “Clinical activity at higher doses” value in test [2] (higher doses (e.g., 1 mg and 2 mg doses)) is “attenuation of activity, or no activity at all”. In addition, the “Clinical benefit on intestinal disease symptoms” value in test [2] (lower doses (e.g., 0.5 mg dose)) is on record as “benefit at reducing intestinal disease symptoms”.

With “GVLVQPG [larazotide-derived fragment missing an N-terminal glycine residue]”, in the test on tight junction, the “Activity of full length larazotide when mixed with the two fragments” value is recorded as “activity is completely abolished” and the “Activity as tight junction regulators” value was “largely inactive”.

For “VLVQPG [larazotide-derived fragment missing N-terminal glycine residues]”, in the test with tight junction, the “Activity of full length larazotide when mixed with the two fragments” value is given as “activity is completely abolished” and the “Activity as tight junction regulators” value was “largely inactive”.
